≈ marks a conversion by molar mass, not a printed value.
Assays:
Assay in all cases: MIC, broth microdilution (NCCLS M7-A5)
Assay type in all cases: cell-based
[1] = test system: S. epidermidis - ATCC 700578; settings: S. epidermidis - ATCC 700578; Table 3
Experimental: (§1) Minimum inhibitory concentrations (MICs) are determined according to the National Committee for Clinical Laboratory Standards (NCCLS) susceptibility test guideline M7-A5 (Ferraro, M. 2001 Methods for Dilution Antimicrobial Susceptibility Tests for Bacteria that Grow Aerobically; Approved Standard (NCCLS). National Committee for Clinical Laboratory Standards (NCCLS), Villanova) to quantify the antimicrobial activity of the compounds of the present embodiment against various pathogenic bacteria. Susceptibility testing is performed by broth microdilution in accordance with National Committee for Clinical Laboratory Standards (NCCLS) guidelines. This procedure entails combining the test compounds with a standardized number of cells, incubating at the temperature and amount of time appropriate for each particular organism, and visually scoring the concentration at which no growth was apparent in the test wells. The panel includes both drug sensitive and drug resistant isolates of both gram-positive and gram-negative bacteria, including: S. aureus (both MSSA and MRSA), S. pneumoniae (wild type and penicillin-resistant), vancomycin-sensitive E. faecalis, vancomycin-resistant E. faecium, E. coli, H. influenzae and P. aeruginosa.
(§2) Susceptibility testing was performed by broth microdilution in accordance with National Committee for Clinical Laboratory Standards (NCCLS) guidelines. Antimicrobial data for compounds of Formulae II, III, IV, VI, VII, VIII, IX, XII, XIII, XIV, XV′, XV, XVI, XVII, XVIII, XXI′, XXII, XXIII, XXIV, and XXV are shown in Tables 3, 4 and 5.

[2] = test system: S. epidermidis - ATCC 700582; settings: S. epidermidis - ATCC 700582; Table 3
Experimental: as §1, §2

E. coli - ATCC 25922 = settings: Table 3
Experimental: as §1, §2

E. coli - imp = settings: E. coli - imp; Table 3
Experimental: as §1, §2

[3] = test system: E. faecium - Van^r (VRE 700221); settings: E. faecium - Van^r; Table 3
Experimental: as §1, §2

[4] = test system: H. influenzae - ATCC 49247; settings: H. influenzae - ATCC 49247; Table 3
Experimental: as §1, §2

[5] = test system: H. influenzae - ATCC 49766; settings: H. influenzae - ATCC 49766; Table 3
Experimental: as §1, §2

S. aureus - MRSA (43300) = settings: S. aureus - MRSA; Table 3
Experimental: as §1, §2

S. aureus - MSSA (29213) = settings: S. aureus - MSSA; Table 3
Experimental: as §1, §2

[6] = test system: S. pneumoniae - penicillin resistant (51915); settings: S. pneumoniae - penicillin resistant; Table 3
Experimental: as §1, §2

[7] = test system: S. pneumoniae - penicillin sensitive (49619); settings: S. pneumoniae - penicillin sensitive; Table 3
Experimental: as §1, §2

[8] = test system: E. faecalis - Van^s (VSE 29212); settings: E. faecalis - Van^s; Table 3
Experimental: as §1, §2

Compound COC(=O)c1[nH]c(C(=O)OC)c(-c2c[nH]c3ccc(Cl)cc23)c1-c1c[nH]c2ccc(Cl)cc12 [VI] has an MIC [1] of 4 µg/mL (≈ 8.29 µM), an MIC [2] of 4 µg/mL (≈ 8.29 µM) and an MIC (E. coli - ATCC 25922) of over 32 µg/mL. For the same compound, the MIC (E. coli - imp) was over 32 µg/mL, the MIC [3] was 8 µg/mL (≈ 16.6 µM) and the MIC [4] was 5 µg/mL (≈ 10.4 µM). It also gave an MIC [5] of 8 µg/mL (≈ 16.6 µM), an MIC (S. aureus - MRSA (43300)) of 3 µg/mL (≈ 6.22 µM) and an MIC (S. aureus - MSSA (29213)) of 3 µg/mL (≈ 6.22 µM). It also gave an MIC [6] of 20 µg/mL (≈ 41.5 µM), an MIC [7] of 24 µg/mL (≈ 49.8 µM) and an MIC [8] of 8 µg/mL (≈ 16.6 µM).

Reference: patent publication US7166634B2, “Bis-indole pyrroles useful as antimicrobials agents” (Nereus Pharmaceuticals, Inc., priority 2004, dated 2007)
